According to patent US20150247179A1 (Les Laboratoires Servier, priority 2013, published 2015):
Read-outs that look alike come from different tables or passages of the source.

Legend:
[1] = biological target: T1, CYP3A4 (Homo sapiens, UniProt P08684); conditions: bortezomib 2 μM; human liver microsomes; cited from earlier work
Target sequence in this assay (P08684 whole entry): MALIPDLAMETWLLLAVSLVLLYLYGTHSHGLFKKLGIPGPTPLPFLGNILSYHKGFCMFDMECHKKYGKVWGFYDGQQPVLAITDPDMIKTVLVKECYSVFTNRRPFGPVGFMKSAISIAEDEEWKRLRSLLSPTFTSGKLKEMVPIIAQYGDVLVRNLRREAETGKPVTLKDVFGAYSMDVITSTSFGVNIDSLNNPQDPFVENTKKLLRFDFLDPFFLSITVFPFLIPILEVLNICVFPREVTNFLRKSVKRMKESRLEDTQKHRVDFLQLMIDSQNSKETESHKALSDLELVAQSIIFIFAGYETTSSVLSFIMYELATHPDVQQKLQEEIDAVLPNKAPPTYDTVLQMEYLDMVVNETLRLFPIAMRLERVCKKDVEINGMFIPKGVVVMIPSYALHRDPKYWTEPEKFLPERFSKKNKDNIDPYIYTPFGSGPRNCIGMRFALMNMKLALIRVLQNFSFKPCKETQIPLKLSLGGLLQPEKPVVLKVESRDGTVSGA

[2] = biological target: CYP2C9 (Homo sapiens, UniProt P11712)
Method: (§1) Each active ingredient was incubated at 0.1 μM at 37° C. […] The reaction is initiated by addition of NADPH 1 mM. The incubation is monitored in kinetic form. At the incubation timepoints of 7 min, 17 min, 30 min and then 60 min, an incubation aliquot (100 μL) is sampled and the enzymatic reaction is stopped by adding to that aliquot a to volume of solvent (100 μL of methanol) which is placed in ice for 10 minutes.
(§2) At each incubation timepoint, the active ingredient is quantified by high-performance liquid chromatography (HPLC) coupled with mass spectrometry (MS).

[3] = test system: CYP1A2
Method: as §1, §2

[4] = biological target: T2, CYP2B6 (Homo sapiens, UniProt P20813)
T2 sequence (P20813 1-491): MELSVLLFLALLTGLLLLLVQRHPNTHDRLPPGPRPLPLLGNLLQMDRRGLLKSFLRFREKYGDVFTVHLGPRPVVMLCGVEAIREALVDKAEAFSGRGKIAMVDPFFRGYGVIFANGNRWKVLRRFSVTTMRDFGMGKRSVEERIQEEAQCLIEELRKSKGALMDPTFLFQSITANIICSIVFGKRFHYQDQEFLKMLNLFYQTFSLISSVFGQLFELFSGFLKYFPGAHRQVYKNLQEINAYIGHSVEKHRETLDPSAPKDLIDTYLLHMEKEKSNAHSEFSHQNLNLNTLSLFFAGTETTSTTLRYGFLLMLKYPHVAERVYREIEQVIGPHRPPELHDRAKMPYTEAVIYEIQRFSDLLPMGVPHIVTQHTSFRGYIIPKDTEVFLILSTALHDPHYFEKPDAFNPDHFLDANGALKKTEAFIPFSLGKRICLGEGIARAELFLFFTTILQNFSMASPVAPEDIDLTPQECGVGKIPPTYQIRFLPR
Method: as §1, §2

[5] = biological target: T3, CYP2D6 (Homo sapiens, UniProt P10635)
Method: as §1, §2

[6] = biological target: T4, CYP2C8 (Homo sapiens, UniProt P10632)
T4 sequence (P10632 1-490): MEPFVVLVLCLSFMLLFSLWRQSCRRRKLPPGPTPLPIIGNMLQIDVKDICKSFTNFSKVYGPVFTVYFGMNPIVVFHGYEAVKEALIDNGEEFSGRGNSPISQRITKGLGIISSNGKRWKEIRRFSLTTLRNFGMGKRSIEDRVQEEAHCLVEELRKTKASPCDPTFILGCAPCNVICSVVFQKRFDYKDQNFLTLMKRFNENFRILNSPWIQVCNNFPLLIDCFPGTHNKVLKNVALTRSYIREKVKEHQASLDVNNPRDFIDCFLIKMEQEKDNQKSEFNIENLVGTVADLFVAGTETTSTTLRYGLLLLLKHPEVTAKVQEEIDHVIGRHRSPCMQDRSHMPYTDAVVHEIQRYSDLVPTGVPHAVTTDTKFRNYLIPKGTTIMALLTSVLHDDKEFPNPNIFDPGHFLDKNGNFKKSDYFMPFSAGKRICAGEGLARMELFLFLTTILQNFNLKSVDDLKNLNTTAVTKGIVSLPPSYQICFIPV
Method: as §1, §2

[7] = human
Method: as §1, §2

[8] = biological target: T1, CYP3A4; conditions: healthy volunteers; itraconazole 100 mg; loperamide 4 mg; cited from earlier work
Target sequence in this assay (P08684 whole entry): as the sequence (P08684 whole entry) above

[9] = biological target: T1, CYP3A4; conditions: healthy volunteer; ritonavir 600 mg; loperamide 16 mg; cited from earlier work
Target sequence in this assay (P08684 whole entry): as the sequence (P08684 whole entry) above

[10] = biological target: T1, CYP3A4; conditions: mirtazapine 2.5 to 1000 μM; human recombinant enzyme model; cited from earlier work
Target sequence in this assay (P08684 whole entry): as the sequence (P08684 whole entry) above

[11] = biological target: T3, CYP2D6; conditions: mirtazapine 2.5 to 1000 μM; human recombinant enzyme model; cited from earlier work
[12] = biological target: T2, CYP2B6; conditions: in a pool of human liver; cited from earlier work
[13] = biological target: T1, CYP3A4
Method: as §1, §2
Target sequence in this assay (P08684 2-503): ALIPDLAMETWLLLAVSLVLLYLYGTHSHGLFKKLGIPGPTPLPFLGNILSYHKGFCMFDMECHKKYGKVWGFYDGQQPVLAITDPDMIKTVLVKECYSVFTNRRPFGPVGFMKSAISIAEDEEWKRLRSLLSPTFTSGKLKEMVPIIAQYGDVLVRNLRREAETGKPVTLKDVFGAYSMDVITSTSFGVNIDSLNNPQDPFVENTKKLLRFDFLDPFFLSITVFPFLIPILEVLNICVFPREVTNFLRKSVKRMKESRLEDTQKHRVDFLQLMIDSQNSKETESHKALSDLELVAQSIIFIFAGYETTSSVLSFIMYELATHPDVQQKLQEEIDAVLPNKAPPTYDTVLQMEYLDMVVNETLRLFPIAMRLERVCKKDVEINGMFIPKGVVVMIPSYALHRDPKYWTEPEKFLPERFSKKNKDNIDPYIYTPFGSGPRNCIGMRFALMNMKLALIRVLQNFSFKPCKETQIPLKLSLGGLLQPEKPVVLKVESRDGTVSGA

Chain of CYP2C9 (P11712 whole entry): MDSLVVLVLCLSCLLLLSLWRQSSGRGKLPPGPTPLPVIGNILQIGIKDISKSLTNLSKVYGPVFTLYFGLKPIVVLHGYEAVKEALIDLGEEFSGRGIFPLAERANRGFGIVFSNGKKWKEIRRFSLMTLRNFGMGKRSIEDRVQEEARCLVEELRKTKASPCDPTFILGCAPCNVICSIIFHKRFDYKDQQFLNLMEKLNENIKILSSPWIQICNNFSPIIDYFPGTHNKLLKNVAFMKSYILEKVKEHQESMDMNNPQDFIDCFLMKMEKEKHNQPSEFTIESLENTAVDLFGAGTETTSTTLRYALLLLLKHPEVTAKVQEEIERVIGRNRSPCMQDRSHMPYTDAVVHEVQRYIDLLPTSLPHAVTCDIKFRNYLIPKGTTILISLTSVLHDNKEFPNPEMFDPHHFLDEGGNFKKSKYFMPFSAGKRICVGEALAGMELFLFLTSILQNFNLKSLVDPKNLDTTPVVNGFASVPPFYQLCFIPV
T3 sequence (P10635 whole entry): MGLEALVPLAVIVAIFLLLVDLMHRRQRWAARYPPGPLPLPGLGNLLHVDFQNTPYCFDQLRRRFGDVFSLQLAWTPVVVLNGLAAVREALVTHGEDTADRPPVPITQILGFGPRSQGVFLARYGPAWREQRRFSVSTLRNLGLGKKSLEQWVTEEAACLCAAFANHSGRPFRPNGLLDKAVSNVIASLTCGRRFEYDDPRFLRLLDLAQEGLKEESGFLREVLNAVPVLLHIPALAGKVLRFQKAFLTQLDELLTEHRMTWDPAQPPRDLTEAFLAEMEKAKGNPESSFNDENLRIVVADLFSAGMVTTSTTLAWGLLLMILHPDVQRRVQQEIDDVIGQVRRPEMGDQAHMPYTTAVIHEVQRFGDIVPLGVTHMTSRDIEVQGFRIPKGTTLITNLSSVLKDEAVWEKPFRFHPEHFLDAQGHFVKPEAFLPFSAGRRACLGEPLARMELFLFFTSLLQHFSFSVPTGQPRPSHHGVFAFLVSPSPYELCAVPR

inhibition of intrinsic clearance = % involvement of CYP2C9 in the oxidative metabolism (kit of isolated microsomes) [2]	inhibition of intrinsic clearance = % involvement of CYP1A2 in the oxidative metabolism (kit of isolated microsomes) [3]	inhibition of intrinsic clearance = % involvement of CYP2B6 in the oxidative metabolism (kit of isolated microsomes) [4]	inhibition of intrinsic clearance = % involvement of CYP2D6 in the oxidative metabolism (kit of isolated microsomes) [5]	inhibition of intrinsic clearance = % involvement of CYP2C8 in the oxidative metabolism (kit of isolated microsomes) [6]	intrinsic clearance in the presence of control microsomes [7]	inhibition of intrinsic clearance = % involvement of CYP3A4 in the oxidative metabolism (kit of isolated microsomes) [13]	Compound	inhibition of metabolism by anti-CYP 3A4 monoclonal antibody = % involvement of CYP3A4, expected data (Uttamsingh et al.) [1]	increase in exposure, factor [8]	increase in exposure, factor [9]	% involvement of CYP3A4 in the metabolism, expected data (Störmer et al.) [10]	% involvement of CYP2D6 in the metabolism, expected data (Störmer et al.) [11]	% involvement of CYP2B6 in the metabolism, expected data (Obach et al.) [12]
No significant inhibition	No significant inhibition	No significant inhibition	No significant inhibition	No significant inhibition	6.9-11 ml/min/g of proteins	–	CC(C)C[C@H](NC(=O)[C@H](Cc1ccccc1)NC(=O)c1cnccn1)B(O)O [bortezomib]	79%	–	–	–	–	–
–	–	–	–	–	–	–	CN(C)C(=O)C(CCN1CCC(O)(c2ccc(Cl)cc2)CC1)(c1ccccc1)c1ccccc1 [loperamide]	–	3.8	2.65	–	–	–
No significant inhibition	–	No significant inhibition	–	No significant inhibition	3.9-7.8 ml/min/g of proteins	–	CN1CCN2c3ncccc3Cc3ccccc3C2C1 (centres unmarked) [mirtazapine]	–	–	–	23%	39%	–
No significant inhibition	–	–	–	No significant inhibition	52.5-70.5 ml/min/g of proteins	No significant inhibition	CN[C@H]1CC[C@@H](c2ccc(Cl)c(Cl)c2)c2ccccc21 [sertraline]	–	–	–	–	–	60%
